Literature values, collected in US20120289567A1, “COMBINATIONS OF DARIFENACIN AND SALIVARY STIMULANTS FOR THE TREATMENT OF OVERACTIVE BLADDER” (THERAVIDA, INC., priority 2011, published 2012).

Details: 5 mg of pilocarpine

CC[C@@H]1C(=O)OC[C@@H]1Cc1cncn1C [pilocarpine]
time of maximum saliva output after administration: about 30 minutes
